Measured values taken from PubChem BioAssay (NCI).
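1) Cells in 96-well plates. 2) Compound, 48 h, 5 concentrations. 3) Linear interpolation between surrounding doses. 4) Unreached endpoint = highest concentration. TGI: total growth inhibition.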

Columns and labels:
Assay in all cases: NCI anticancer screen, dose series, 48 h
NCI/ADR-RES ovarian = tested on: NCI/ADR-RES ovarian
RXF 393 renal = tested on: RXF 393 renal
UACC-62 melanoma = tested on: UACC-62 melanoma
UACC-257 melanoma = tested on: UACC-257 melanoma
DU-145 prostate = tested on: DU-145 prostate
HOP-62 NSCLC = tested on: HOP-62 NSCLC
MDA-MB-231 breast = tested on: MDA-MB-231 breast
NCI-H460 lung = tested on: NCI-H460 lung
HL-60(TB) leukemia = tested on: HL-60(TB) leukemia
PC-3 prostate = tested on: PC-3 prostate
SW-620 colon = tested on: SW-620 colon
ACHN renal = tested on: ACHN renal
CAKI-1 renal = tested on: CAKI-1 renal
K-562 leukemia = tested on: K-562 leukemia
SF-268 CNS = tested on: SF-268 CNS
A498 renal = tested on: A498 renal
RPMI-8226 leukemia = tested on: RPMI-8226 leukemia
CCRF-CEM leukemia = tested on: CCRF-CEM leukemia
HCT-15 colon = tested on: HCT-15 colon
SNB-75 CNS = tested on: SNB-75 CNS
SF-295 CNS = tested on: SF-295 CNS
MOLT-4 leukemia = tested on: MOLT-4 leukemia
BT-549 breast = tested on: BT-549 breast
A549 NSCLC = tested on: A549 NSCLC
EKVX NSCLC = tested on: EKVX NSCLC
T-47D breast = tested on: T-47D breast
SN12C renal = tested on: SN12C renal
M14 melanoma = tested on: M14 melanoma
KM12 colon = tested on: KM12 colon
SK-MEL-2 melanoma = tested on: SK-MEL-2 melanoma
MDA-MB-435 = tested on: MDA-MB-435
786-0 renal = tested on: 786-0 renal
NCI-H522 lung = tested on: NCI-H522 lung
SK-OV-3 ovarian = tested on: SK-OV-3 ovarian
SNB-19 CNS = tested on: SNB-19 CNS
NCI-H226 lung = tested on: NCI-H226 lung
U251 CNS = tested on: U251 CNS
LOX IMVI melanoma = tested on: LOX IMVI melanoma
MCF7 breast = tested on: MCF7 breast
HCC-2998 colon = tested on: HCC-2998 colon
OVCAR-3 ovarian = tested on: OVCAR-3 ovarian
OVCAR-5 ovarian = tested on: OVCAR-5 ovarian
TK-10 renal = tested on: TK-10 renal
IGROV1 ovarian = tested on: IGROV1 ovarian
HT29 colon = tested on: HT29 colon
SF-539 CNS = tested on: SF-539 CNS
OVCAR-8 ovarian = tested on: OVCAR-8 ovarian
MDA-N = tested on: MDA-N
NCI-H23 lung = tested on: NCI-H23 lung
HCT-116 colon = tested on: HCT-116 colon
HS 578T breast = tested on: HS 578T breast
SK-MEL-28 melanoma = tested on: SK-MEL-28 melanoma
MALME-3M melanoma = tested on: MALME-3M melanoma
OVCAR-4 ovarian = tested on: OVCAR-4 ovarian
COLO 205 colon = tested on: COLO 205 colon
HOP-92 NSCLC = tested on: HOP-92 NSCLC
UO-31 renal = tested on: UO-31 renal
SK-MEL-5 melanoma = tested on: SK-MEL-5 melanoma

CCO/C(O)=C(/C(=N)N1CCOCC1)C(=O)Nc1ccc(Cl)cc1
TGI (NCI/ADR-RES ovarian): > 100 µM
TGI (RXF 393 renal): > 100 µM
TGI (UACC-62 melanoma): > 100 µM
TGI (UACC-257 melanoma): > 100 µM
TGI (DU-145 prostate): > 100 µM
TGI (HOP-62 NSCLC): > 100 µM
TGI (MDA-MB-231 breast): > 100 µM
TGI (NCI-H460 lung): > 100 µM
TGI (HL-60(TB) leukemia): > 100 µM
TGI (PC-3 prostate): > 100 µM
TGI (SW-620 colon): > 100 µM
TGI (ACHN renal): > 100 µM
TGI (CAKI-1 renal): > 100 µM
TGI (K-562 leukemia): > 100 µM
TGI (SF-268 CNS): > 100 µM
TGI (A498 renal): > 100 µM
TGI (RPMI-8226 leukemia): > 100 µM
TGI (CCRF-CEM leukemia): > 100 µM
TGI (HCT-15 colon): > 100 µM
TGI (SNB-75 CNS): > 100 µM
TGI (SF-295 CNS): > 100 µM
TGI (MOLT-4 leukemia): > 100 µM
TGI (BT-549 breast): > 100 µM
TGI (A549 NSCLC): > 100 µM
TGI (EKVX NSCLC): > 100 µM
TGI (T-47D breast): > 100 µM
TGI (SN12C renal): > 100 µM
TGI (M14 melanoma): > 100 µM
TGI (KM12 colon): > 100 µM
TGI (SK-MEL-2 melanoma): > 100 µM
TGI (MDA-MB-435): > 100 µM
TGI (786-0 renal): > 100 µM
TGI (NCI-H522 lung): > 100 µM
TGI (SK-OV-3 ovarian): > 100 µM
TGI (SNB-19 CNS): > 100 µM
TGI (NCI-H226 lung): > 100 µM
TGI (U251 CNS): > 100 µM
TGI (LOX IMVI melanoma): > 100 µM
TGI (MCF7 breast): > 100 µM
TGI (HCC-2998 colon): > 100 µM
TGI (OVCAR-3 ovarian): > 100 µM
TGI (OVCAR-5 ovarian): > 100 µM
TGI (TK-10 renal): > 100 µM
TGI (IGROV1 ovarian): > 100 µM
TGI (HT29 colon): > 100 µM
TGI (SF-539 CNS): > 100 µM
TGI (OVCAR-8 ovarian): > 100 µM
TGI (MDA-N): > 100 µM
TGI (NCI-H23 lung): > 100 µM
TGI (HCT-116 colon): > 100 µM
TGI (HS 578T breast): > 100 µM
TGI (SK-MEL-28 melanoma): > 100 µM
TGI (MALME-3M melanoma): > 100 µM
TGI (OVCAR-4 ovarian): > 100 µM
TGI (COLO 205 colon): > 100 µM

C[C@]12CC[C@@H]3c4cc(Br)c(O)c(Br)c4CC[C@H]3[C@@H]1CC(Br)C2=O (stereo partly specified)
TGI (NCI/ADR-RES ovarian): 39.5 µM
TGI (RXF 393 renal): 19.3 µM
TGI (UACC-62 melanoma): 14.8 µM
TGI (UACC-257 melanoma): 33.5 µM
TGI (HOP-92 NSCLC): 45.6 µM
TGI (DU-145 prostate): > 100 µM
TGI (MDA-MB-231 breast): 75 µM
TGI (NCI-H460 lung): 18.8 µM
TGI (UO-31 renal): 9.03 µM
TGI (HL-60(TB) leukemia): 7.52 µM
TGI (PC-3 prostate): 27.2 µM
TGI (SW-620 colon): 9.57 µM
TGI (ACHN renal): 21.2 µM
TGI (CAKI-1 renal): 15.9 µM
TGI (K-562 leukemia): 13.6 µM
TGI (SF-268 CNS): 26.8 µM
TGI (A498 renal): 44.6 µM
TGI (CCRF-CEM leukemia): 50.5 µM
TGI (HCT-15 colon): 10.1 µM
TGI (SNB-75 CNS): 27.9 µM
TGI (SF-295 CNS): 33.1 µM
TGI (MOLT-4 leukemia): 9.36 µM
TGI (BT-549 breast): 17.6 µM
TGI (A549 NSCLC): 38.8 µM
TGI (EKVX NSCLC): 39.6 µM
TGI (T-47D breast): > 100 µM
TGI (SN12C renal): 38.4 µM
TGI (M14 melanoma): > 100 µM
TGI (KM12 colon): 15.8 µM
TGI (SK-MEL-2 melanoma): 27.3 µM
TGI (MDA-MB-435): 21.6 µM
TGI (786-0 renal): > 100 µM
TGI (SK-OV-3 ovarian): 30.2 µM
TGI (NCI-H226 lung): 26.6 µM
TGI (U251 CNS): 12.7 µM
TGI (LOX IMVI melanoma): > 100 µM
TGI (MCF7 breast): 29.9 µM
TGI (HCC-2998 colon): 3.73 µM
TGI (OVCAR-5 ovarian): 73.2 µM
TGI (TK-10 renal): 29.4 µM
TGI (IGROV1 ovarian): 23.6 µM
TGI (HT29 colon): 10.7 µM
TGI (SF-539 CNS): 24.4 µM
TGI (OVCAR-8 ovarian): 7.83 µM
TGI (MDA-N): 43.5 µM
TGI (HCT-116 colon): > 100 µM
TGI (HS 578T breast): 82.4 µM
TGI (SK-MEL-28 melanoma): 22.3 µM
TGI (MALME-3M melanoma): 34.2 µM
TGI (OVCAR-4 ovarian): > 100 µM
TGI (COLO 205 colon): > 100 µM

O=C(c1ccc(Cl)cc1)N(C(=S)OC12CC3CC(CC(C3)C1)C2)c1ccccc1
TGI (NCI/ADR-RES ovarian): > 100 µM
TGI (RXF 393 renal): > 100 µM
TGI (UACC-62 melanoma): > 100 µM
TGI (UACC-257 melanoma): > 100 µM
TGI (HOP-92 NSCLC): > 100 µM
TGI (DU-145 prostate): > 100 µM
TGI (HOP-62 NSCLC): > 100 µM
TGI (MDA-MB-231 breast): > 100 µM
TGI (SK-MEL-5 melanoma): > 100 µM
TGI (NCI-H460 lung): > 100 µM
TGI (UO-31 renal): 74.5 µM
TGI (HL-60(TB) leukemia): 62.6 µM
TGI (PC-3 prostate): > 100 µM
TGI (SW-620 colon): > 100 µM
TGI (ACHN renal): > 100 µM
TGI (CAKI-1 renal): > 100 µM
TGI (K-562 leukemia): > 100 µM
TGI (SF-268 CNS): > 100 µM
TGI (A498 renal): > 100 µM
TGI (CCRF-CEM leukemia): > 100 µM
TGI (HCT-15 colon): > 100 µM
TGI (SNB-75 CNS): > 100 µM
TGI (SF-295 CNS): > 100 µM
TGI (MOLT-4 leukemia): 73.5 µM
TGI (BT-549 breast): > 100 µM
TGI (A549 NSCLC): > 100 µM
TGI (EKVX NSCLC): 66.5 µM
TGI (T-47D breast): > 100 µM
TGI (SN12C renal): > 100 µM
TGI (M14 melanoma): > 100 µM
TGI (KM12 colon): > 100 µM
TGI (SK-MEL-2 melanoma): > 100 µM
TGI (MDA-MB-435): > 100 µM
TGI (786-0 renal): > 100 µM
TGI (NCI-H522 lung): 56.3 µM
TGI (SK-OV-3 ovarian): > 100 µM
TGI (SNB-19 CNS): 89.7 µM
TGI (NCI-H226 lung): > 100 µM
TGI (U251 CNS): > 100 µM
TGI (MCF7 breast): > 100 µM
TGI (HCC-2998 colon): > 100 µM
TGI (OVCAR-3 ovarian): > 100 µM
TGI (OVCAR-5 ovarian): > 100 µM
TGI (TK-10 renal): > 100 µM
TGI (HT29 colon): > 100 µM
TGI (SF-539 CNS): > 100 µM
TGI (OVCAR-8 ovarian): > 100 µM
TGI (MDA-N): > 100 µM
TGI (NCI-H23 lung): > 100 µM
TGI (HCT-116 colon): > 100 µM
TGI (HS 578T breast): > 100 µM
TGI (SK-MEL-28 melanoma): > 100 µM
TGI (MALME-3M melanoma): > 100 µM
TGI (OVCAR-4 ovarian): > 100 µM
TGI (COLO 205 colon): 31.2 µM
